The record followed here is patent US20090298820A1, “3-SUBSTITUTED-1H-PYRROLO[2,3-B]PYRIDINE AND 3-SUBSTITUTED-1H-PYRROLO[3,2-B]PYRIDINE COMPOUNDS, THEIR USE AS MTOR KINASE AND PI3 KINASE INHIBITORS, AND THEIR SYNTHESES” (Wyeth, priority 2008, published 2009).

What all share (type): biochemical
One assay has as its target mTOR (Homo sapiens, UniProt P42345). The assay is described as follows: mTOR enzyme assay (DELFIA format, His6-S6K substrate). Particulars: read-out: mTOR Kinase Median IC50.
Another assay concerns the target PI3Kγ (Homo sapiens, UniProt P48736). In words: PI3K-gamma fluorescence polarization assay. Particulars: read-out: PI3Kγ Median IC50. Background: Polarisation of emitted light reports the rotation of a fluorescent probe.
A further assay has as its target PI3Kα (Homo sapiens, UniProt P42336). The assay is described as follows: PI3K-alpha fluorescence polarization assay. Particulars: read-out: PI3Kα Median IC50.

Each structure is given as a SMILES string.

Sequence of PI3Kγ (P48736 whole entry, species assumed): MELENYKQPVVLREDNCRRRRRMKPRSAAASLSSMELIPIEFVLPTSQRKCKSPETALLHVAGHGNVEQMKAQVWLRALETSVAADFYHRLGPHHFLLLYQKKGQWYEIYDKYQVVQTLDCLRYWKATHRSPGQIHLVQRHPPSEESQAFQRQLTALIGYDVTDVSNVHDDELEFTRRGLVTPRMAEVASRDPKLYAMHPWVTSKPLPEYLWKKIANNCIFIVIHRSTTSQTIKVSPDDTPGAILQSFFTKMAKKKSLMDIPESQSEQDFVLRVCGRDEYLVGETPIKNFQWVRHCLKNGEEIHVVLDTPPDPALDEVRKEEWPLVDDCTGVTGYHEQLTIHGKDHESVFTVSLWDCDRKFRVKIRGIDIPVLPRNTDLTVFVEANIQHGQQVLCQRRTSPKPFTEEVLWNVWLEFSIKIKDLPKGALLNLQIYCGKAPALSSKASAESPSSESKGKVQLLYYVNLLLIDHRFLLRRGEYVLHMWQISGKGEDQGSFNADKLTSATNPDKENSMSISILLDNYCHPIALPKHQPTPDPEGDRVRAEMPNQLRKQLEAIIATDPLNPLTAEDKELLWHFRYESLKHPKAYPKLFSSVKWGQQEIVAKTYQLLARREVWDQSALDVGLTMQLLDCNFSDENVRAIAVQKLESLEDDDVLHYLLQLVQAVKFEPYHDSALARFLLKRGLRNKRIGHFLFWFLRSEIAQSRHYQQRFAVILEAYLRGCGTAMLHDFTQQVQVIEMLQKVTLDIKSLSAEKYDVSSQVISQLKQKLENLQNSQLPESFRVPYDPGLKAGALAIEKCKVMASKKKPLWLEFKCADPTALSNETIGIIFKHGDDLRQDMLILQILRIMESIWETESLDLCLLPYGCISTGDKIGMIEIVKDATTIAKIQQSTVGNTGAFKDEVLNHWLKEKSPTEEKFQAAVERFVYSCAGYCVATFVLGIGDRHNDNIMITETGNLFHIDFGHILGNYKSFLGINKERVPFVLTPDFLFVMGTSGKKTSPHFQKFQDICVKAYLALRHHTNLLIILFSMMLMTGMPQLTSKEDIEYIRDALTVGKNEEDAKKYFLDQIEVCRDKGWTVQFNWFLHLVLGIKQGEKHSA
Sequence of PI3Kα (P42336 whole entry, species assumed): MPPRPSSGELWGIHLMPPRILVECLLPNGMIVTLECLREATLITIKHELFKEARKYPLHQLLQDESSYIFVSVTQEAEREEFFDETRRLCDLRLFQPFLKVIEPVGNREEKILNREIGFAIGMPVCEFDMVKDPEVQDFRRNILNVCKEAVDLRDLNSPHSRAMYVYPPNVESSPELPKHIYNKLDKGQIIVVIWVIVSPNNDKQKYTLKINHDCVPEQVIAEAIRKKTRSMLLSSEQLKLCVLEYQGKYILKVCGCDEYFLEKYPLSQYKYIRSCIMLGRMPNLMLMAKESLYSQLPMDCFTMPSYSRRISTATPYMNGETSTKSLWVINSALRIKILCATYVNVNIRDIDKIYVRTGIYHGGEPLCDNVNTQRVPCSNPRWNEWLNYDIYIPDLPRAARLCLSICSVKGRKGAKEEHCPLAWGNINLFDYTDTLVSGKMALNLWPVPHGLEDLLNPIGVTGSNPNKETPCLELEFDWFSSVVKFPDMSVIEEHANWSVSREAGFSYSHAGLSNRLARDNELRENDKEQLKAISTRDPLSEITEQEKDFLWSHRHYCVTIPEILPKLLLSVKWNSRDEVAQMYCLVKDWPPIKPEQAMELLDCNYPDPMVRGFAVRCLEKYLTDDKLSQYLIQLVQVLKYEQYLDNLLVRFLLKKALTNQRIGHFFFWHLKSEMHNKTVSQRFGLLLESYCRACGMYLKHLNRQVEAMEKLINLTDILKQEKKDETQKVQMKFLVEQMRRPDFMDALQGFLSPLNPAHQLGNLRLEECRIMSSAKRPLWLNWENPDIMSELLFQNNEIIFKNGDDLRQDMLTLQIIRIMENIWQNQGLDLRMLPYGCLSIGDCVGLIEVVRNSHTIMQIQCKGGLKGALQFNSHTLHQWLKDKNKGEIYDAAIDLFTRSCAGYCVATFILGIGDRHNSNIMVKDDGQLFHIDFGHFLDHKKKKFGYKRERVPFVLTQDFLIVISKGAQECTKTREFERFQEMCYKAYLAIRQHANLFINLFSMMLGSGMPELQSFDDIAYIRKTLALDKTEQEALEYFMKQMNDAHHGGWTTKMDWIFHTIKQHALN
Sequence of PI3Kα (P27986 whole entry partner, species assumed): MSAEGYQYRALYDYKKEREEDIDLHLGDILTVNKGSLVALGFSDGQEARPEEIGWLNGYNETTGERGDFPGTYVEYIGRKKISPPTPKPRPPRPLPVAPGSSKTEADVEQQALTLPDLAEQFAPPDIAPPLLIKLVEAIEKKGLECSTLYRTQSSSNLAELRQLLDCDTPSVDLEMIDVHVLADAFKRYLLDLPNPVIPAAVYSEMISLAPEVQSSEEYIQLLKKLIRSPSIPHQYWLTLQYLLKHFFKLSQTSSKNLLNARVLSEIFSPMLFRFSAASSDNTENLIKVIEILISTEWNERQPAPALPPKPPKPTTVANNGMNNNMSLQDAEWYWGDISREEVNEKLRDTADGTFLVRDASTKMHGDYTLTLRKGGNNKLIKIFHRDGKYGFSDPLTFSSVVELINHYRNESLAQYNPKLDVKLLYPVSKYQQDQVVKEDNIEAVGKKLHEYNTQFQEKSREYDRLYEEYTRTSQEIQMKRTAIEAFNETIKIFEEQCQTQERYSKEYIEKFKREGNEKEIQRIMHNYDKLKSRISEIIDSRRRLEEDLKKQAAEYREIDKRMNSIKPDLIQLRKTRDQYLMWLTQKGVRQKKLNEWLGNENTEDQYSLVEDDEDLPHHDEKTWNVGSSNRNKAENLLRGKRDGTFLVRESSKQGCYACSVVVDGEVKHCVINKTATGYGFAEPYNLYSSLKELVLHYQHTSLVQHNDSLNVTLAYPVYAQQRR

For orientation: IC50 means the concentration needed to halve the response being measured. As to `COC1CCN(C(=O)c2ccc(-c3ccnc4c3c(/C=C3\Oc5cccc(O)c5C3=O)cn4C)cc2)C1` (stereo not drawn) [Compound 249, (2Z)-4-hydroxy-2-[(4-{4-[(3-methoxypyrrolidin-1-yl)carbonyl]phenyl}-1-methyl-1H-pyrrolo[2,3-b]pyridin-3-yl)methylene]-1-benzofuran-3(2H)-one], the half-inhibitory concentration (IC50) on mTOR was determined as 0.6 nM; on PI3Kγ it was 26 nM; at PI3Kα it was 20 nM.

Take `CN1CCN(C(=O)C2CCN(c3ccnc4c3c(/C=C3\Oc5ccc(NC(=O)Nc6cccnc6)cc5C3=O)cn4C)CC2)CC1` [Compound 252, 1-{(2Z)-2-[(1-methyl-4-{4-[(4-methylpiperazin-1-yl)carbonyl]piperidin-1-yl}-1H-pyrrolo[2,3-b]pyridin-3-yl)methylidene]-3-oxo-2,3-dihydro-1-benzofuran-5-yl}-3-pyridin-3-ylurea]: the IC50 at mTOR turned out to be 7 nM; at PI3Kγ, 1250 nM; at PI3Kα it was 4600 nM.

As to `Cn1cc(/C=C2\Oc3ccc(NC(=O)Nc4cccnc4)cc3C2=O)c2c(N3CCC(C(=O)N4CCCC4)CC3)ccnc21` [Compound 253, 1-[(2Z)-2-({1-methyl-4-[4-(pyrrolidin-1-ylcarbonyl)piperidin-1-yl]-1H-pyrrolo[2,3-b]pyridin-3-yl}methylene)-3-oxo-2,3-dihydro-1-benzofuran-5-yl]-3-pyridin-3-ylurea], the 50% inhibitory concentration (IC50) at mTOR stood at 8.2 nM; at PI3Kγ, 661 nM; at PI3Kα it was 909 nM.

For `Cn1cc(/C=C2\Oc3ccc(NC(=O)Nc4cccnc4)cc3C2=O)c2c(N3CCC(C(=O)NCCO)CC3)ccnc21` [Compound 254, N-(2-hydroxyethyl)-1-{1-methyl-3-[(Z)-{3-oxo-5-[(pyridin-3-ylcarbamoyl)amino]-1-benzofuran-2(3H)-ylidene}methyl]-1H-pyrrolo[2,3-b]pyridin-4-yl}piperidine-4-carboxamide], the IC50 was determined as 4.2 nM on mTOR, 1140 nM on PI3Kγ and 3330 nM on PI3Kα.

In the case of `Cn1cc(/C=C2\Oc3ccc(NC(=O)Nc4cccnc4)cc3C2=O)c2c(N3CCC(C(=O)N4CCCCC4)CC3)ccnc21` [Compound 258, 1-[(2Z)-2-({1-methyl-4-[4-(piperidin-1-ylcarbonyl)piperidin-1-yl]-1H-pyrrolo[2,3-b]pyridin-3-yl}methylene)-3-oxo-2,3-dihydro-1-benzofuran-5-yl]-3-pyridin-3-ylurea], the concentration for half-maximal inhibition (IC50) at mTOR was found to be 47.5 nM; on PI3Kγ, 206 nM; on PI3Kα, 604 nM.

For the molecule `COC1CCN(C(=O)c2ccc(-c3ccnc4c3c(/C=C3\Oc5ccc(NC(=O)Nc6cccnc6)cc5C3=O)cn4C)cc2)C1` (stereo not drawn) [Compound 259, 1-{(2Z)-2-[(4-{4-[(3-methoxypyrrolidin-1-yl)carbonyl]phenyl}-1-methyl-1H-pyrrolo[2,3-b]pyridin-3-yl)methylene]-3-oxo-2,3-dihydro-1-benzofuran-5-yl}-3-pyridin-3-ylurea], the values for the concentration for half-maximal inhibition (IC50) at mTOR, on PI3Kγ and at PI3Kα were 17.5 nM, 529 nM and 2060 nM, respectively.

For `COCCNC(=O)C1CCN(c2ccnc3c2c(/C=C2\Oc4ccc(NC(=O)Nc5cccnc5)cc4C2=O)cn3C)CC1` [Compound 260, N-(2-methoxyethyl)-1-{1-methyl-3-[(Z)-{3-oxo-5-[(pyridin-3-ylcarbamoyl)amino]-1-benzofuran-2(3H)-ylidene}methyl]-1H-pyrrolo[2,3-b]pyridin-4-yl}piperidine-4-carboxamide], the values for the IC50 on mTOR, on PI3Kγ and at PI3Kα were 8.4 nM, 1920 nM and 744 nM, respectively.

Take `CN(C)CCNC(=O)C1CCN(c2ccnc3c2c(/C=C2\Oc4ccc(NC(=O)Nc5cccnc5)cc4C2=O)cn3C)CC1` [Compound 261, N-[2-(dimethylamino)ethyl]-1-{1-methyl-3-[(Z)-{3-oxo-5-[(pyridin-3-ylcarbamoyl)amino]-1-benzofuran-2(3H)-ylidene}methyl]-1H-pyrrolo[2,3-b]pyridin-4-yl}piperidine-4-carboxamide]: the IC50 was 22.5 nM on mTOR, 886 nM at PI3Kγ and > 10000 nM at PI3Kα.

`CC1CN(C(=O)C2CCN(c3ccnc4c3c(/C=C3\Oc5ccc(NC(=O)Nc6cccnc6)cc5C3=O)cn4C)CC2)CC(C)O1` (stereo not drawn) [Compound 265, 1-{(2Z)-2-[(4-{4-[(2,6-dimethylmorpholin-4-yl)carbonyl]piperidin-1-yl}-1-methyl-1H-pyrrolo[2,3-b]pyridin-3-yl)methylene]-3-oxo-2,3-dihydro-1-benzofuran-5-yl}-3-pyridin-3-ylurea]: the IC50 at mTOR is 40.5 nM; at PI3Kγ it was 1190 nM; at PI3Kα, 3750 nM.

On to `CN(C)CCN(C)C(=O)C1CCN(c2ccnc3c2c(/C=C2\Oc4ccc(NC(=O)Nc5cccnc5)cc4C2=O)cn3C)CC1` [Compound 266, N-[2-(dimethylamino)ethyl]-N-methyl-1-{1-methyl-3-[(Z)-{3-oxo-5-[(pyridin-3-ylcarbamoyl)amino]-1-benzofuran-2(3H)-ylidene}methyl]-1H-pyrrolo[2,3-b]pyridin-4-yl}piperidine-4-carboxamide], for which the IC50 at mTOR is 42.5 nM; at PI3Kγ, 1200 nM; on PI3Kα, > 10000 nM.

In the case of `CN(C)C(=O)C1CCN(c2ccnc3c2c(/C=C2\Oc4ccc(NC(=O)Nc5ccc(OC6CCOCC6)nc5)cc4C2=O)cn3C)CC1` [Compound 267, N,N-dimethyl-1-(1-methyl-3-{(Z)-[3-oxo-5-({[6-(tetrahydro-2H-pyran-4-yloxy)pyridin-3-yl]carbamoyl}amino)-1-benzofuran-2(3H)-ylidene]methyl}-1H-pyrrolo[2,3-b]pyridin-4-yl)piperidine-4-carboxamide], the figures for the concentration for half-maximal inhibition (IC50) at mTOR, on PI3Kγ and at PI3Kα were 39 nM, 638 nM and 503 nM, respectively.

With `CN(C)C(=O)C1CCN(c2ccnc3c2c(/C=C2\Oc4ccc(NC(=O)Nc5ccc(N6CCOCC6)cc5)cc4C2=O)cn3C)CC1` [Compound 268, N,N-dimethyl-1-(1-methyl-3-{(Z)-[5-{[(4-morpholin-4-ylphenyl)carbamoyl]amino}-3-oxo-1-benzofuran-2(3H)-ylidene]methyl}-1H-pyrrolo[2,3-b]pyridin-4-yl)piperidine-4-carboxamide], the IC50 on mTOR is 215 nM; at PI3Kγ it was 6090 nM; at PI3Kα, 2590 nM.

With `Cn1cc(/C=C2\Oc3ccc(NC(=O)Nc4ccc(N5CCOCC5)cc4)cc3C2=O)c2c(N3CC4CCC(C3)O4)ccnc21` [Compound 273, 1-[(2Z)-2-{[1-methyl-4-(8-oxa-3-azabicyclo[3.2.1]oct-3-yl)-1H-pyrrolo[2,3-b]pyridin-3-yl]methylidene}-3-oxo-2,3-dihydro-1-benzofuran-5-yl]-3-(4-morpholin-4-ylphenyl)urea], the IC50 at mTOR is 3350 nM; on PI3Kγ it was > 10000 nM; on PI3Kα, 5700 nM.

As for `CN(C)CCOc1ccc(NC(=O)Nc2ccc3c(c2)C(=O)/C(=C/c2cn(C)c4nccc(N5CCC(C(=O)N(C)C)CC5)c24)O3)cc1` [Compound 274, 1-{3-[(Z)-{5-[({4-[2-(dimethylamino)ethoxy]phenyl}carbamoyl)amino]-3-oxo-1-benzofuran-2(3H)-ylidene}methyl]-1-methyl-1H-pyrrolo[2,3-b]pyridin-4-yl}-N,N-dimethylpiperidine-4-carboxamide], the IC50 on mTOR came out at 21 nM; on PI3Kγ it was 934 nM; on PI3Kα it was 778 nM.

Take `COC1CCN(C(=O)C2CCN(c3ccnc4c3c(/C=C3\Oc5ccc(NC(=O)Nc6cccnc6)cc5C3=O)cn4C)CC2)C1` (stereo not drawn) [Compound 275, 1-{(2Z)-2-[(4-{4-[(3-methoxypyrrolidin-1-yl)carbonyl]piperidin-1-yl}-1-methyl-1H-pyrrolo[2,3-b]pyridin-3-yl)methylidene]-3-oxo-2,3-dihydro-1-benzofuran-5-yl}-3-pyridin-3-ylurea]: the figures for the half-inhibitory concentration (IC50) at mTOR, on PI3Kγ and at PI3Kα were 13 nM, 1330 nM and 1610 nM, respectively.

As to `Cn1cc(/C=C2\Oc3ccc(NC(=O)Nc4ccc(CN5CCCCC5)cc4)cc3C2=O)c2c(N3CC4CCC(C3)O4)ccnc21` [Compound 278, 1-[(2Z)-2-{[1-methyl-4-(8-oxa-3-azabicyclo[3.2.1]oct-3-yl)-1H-pyrrolo[2,3-b]pyridin-3-yl]methylidene}-3-oxo-2,3-dihydro-1-benzofuran-5-yl]-3-[4-(piperidin-1-ylmethyl)phenyl]urea], the IC50 on mTOR was 23 nM; on PI3Kγ, 450 nM; at PI3Kα it was 743 nM.

Turning to `Cn1cc(/C=C2\Oc3ccc(NC(=O)NC4CNC4)cc3C2=O)c2c(N3CC4CCC(C3)O4)ccnc21` [Compound 285, 1-azetidin-3-yl-3-[(2Z)-2-{[1-methyl-4-(8-oxa-3-azabicyclo[3.2.1]oct-3-yl)-1H-pyrrolo[2,3-b]pyridin-3-yl]methylidene}-3-oxo-2,3-dihydro-1-benzofuran-5-yl]urea], the figures for the IC50 at mTOR, on PI3Kγ and at PI3Kα were 11.4 nM, 532 nM and 49 nM, respectively.

Consider `Cn1cc(/C=C2\Oc3ccc(NC(=O)NC4CCN(C(=O)C(F)(F)F)CC4)cc3C2=O)c2c(N3CC4CCC(C3)O4)ccnc21` [Compound 286, 1-[(2Z)-2-{[1-methyl-4-(8-oxa-3-azabicyclo[3.2.1]oct-3-yl)-1H-pyrrolo[2,3-b]pyridin-3-yl]methylidene}-3-oxo-2,3-dihydro-1-benzofuran-5-yl]-3-[1-(trifluoroacetyl)piperidin-4-yl]urea], for which the IC50 worked out at 108 nM on mTOR, 1720 nM at PI3Kγ and 354 nM at PI3Kα.

Take `CN(C)C(=O)C1CCN(c2ccnc3c2c(/C=C2\Oc4ccc(NC(=O)NC5CNC5)cc4C2=O)cn3C)CC1` [Compound 287, 1-{3-[(Z)-{5-[(azetidin-3-ylcarbamoyl)amino]-3-oxo-1-benzofuran-2(3H)-ylidene}methyl]-1-methyl-1H-pyrrolo[2,3-b]pyridin-4-yl}-N,N-dimethylpiperidine-4-carboxamide]: the values for the IC50 at mTOR, on PI3Kγ and on PI3Kα were 8.4 nM, 314 nM and 68 nM, respectively.
